# From PMC9458111, “New 1,2,3-Triazole-Coumarin-Glycoside Hybrids and Their 1,2,4-Triazolyl Thioglycoside Analogs Targeting Mitochondria Apoptotic Pathway: Synthesis, Anticancer Activity and Docking Simulation” (Molecules, 2022)
# Columns and labels:
# [1] = system: human colorectal adenocarcinoma (Caco-2 cell lines); assay: MTT cytotoxicity assay, Caco-2; format: cell-based; details: Caco-2, 48 h
# Description: (§1) The synthesized compounds were studied for their cytotoxic activity against several human cancer cell lines, namely human osteosarcoma (HOS cell lines), human breast adenocarcinoma (MDA-MB-231 cell lines), human breast cancer (MCF-7 cell lines), human colorectal adenocarcinoma (Caco-2 cell lines) and human colon cell line (HCT-116 cell lines) using MTT assay at 100 µM, and the results were outlined as shown in Table 1.
# (§2) Human osteosarcoma (HOS cell line), human breast adenocarcinoma (MDA-MB-231cell lines), human breast cancer (MCF-7 cell lines), human colorectal adenocarcinoma (Caco2 cell lines), human colon cell line (HCT-116 cell lines), normal human cell lines (BJ-1), and “a telomerase immortalized normal foreskin fibroblast cell line” were obtained from Karolinska Center, Department of Oncology and Pathology, Karolinska Institute and Hospital, Stockholm, Sweden.
# (§3) Following culturing for 10 days, the cells were seeded at concentration of 10 × 10^3 cells per well in case of MCF-7 & MDA, 20 × 10^3 cells/well in a fresh complete growth medium in case of HCT-116, Caco2, & HOS and 40 × 10^3 cells/well in case of BJ-1 at 37 °C for 24 h in a water jacketed carbon dioxide incubator. After 48 h’ incubation, the medium was aspirated, and then 40 μl MTT salt (2.5 mg/mL) were added for a further 4 h; 200 μl 10% sodium dodecyl sulphate (SDS) in deionized water were added to each well and incubated overnight at 37 °C. The absorbance was measured at 595 nm with reference 690 nm. Doxorubicin was used as positive control, and 0.5% DMSO was used as negative control. IC50 values were calculated, using a probit analysis, and by utilizing the SPSS computer program (SPSS for Windows, statistical analysis software package/version 9/1989 SPSS Inc., Chicago, IL, USA).
# caspase-7 in MCF-7 cells = assay: Caspase-7 level in MCF-7 cells (ELISA); format: cell-based, human; details: MCF-7, 24 h, versus 5-fluorouracil or untreated cells
# Description: (§4) Referring to the cytotoxicity results, the 1,2,4-triazole-thioglycoside derivative 10 has a mitochondria-apoptotic effect on breast cancer cells through reduction of MTT by a mitochondrial enzyme. […] Along with that, such derivative elevated the release of cytochrome c into the cytosol in the treated MCF-7, in comparison with untreated one from 0.176 to 0.766 ng/ml due to disturbing mitochondrial outer membrane permeability (MOMP). In addition, the target 10 achieved better results than those afforded by from the standard 5-fluorouracil. Moreover, the level of caspase-7 was elevated in treated cells with the target 10 rather than that with 5-fluorouracil or the untreated cells as shown in Figure 4.
# The micro-ELISA plate was provided in this kit pre-coated with a CASP-7-specific antibody. A biotinylated CASP-7 antibody and Avidin–horseradish peroxidase (HRP) conjugate were added. Get rid of the excess components. The substrate solution was added. Wells that contain CASP-7, biotinylated detection antibody, and Avidin-HRP conjugate will appear blue in color. The color turns yellow following the addition of sulfuric acid solution. The optical density (OD) was measured at a wavelength of 450 nm ±2 nm. […]
# [2] = system: human colon cell line (HCT-116 cell lines); assay: MTT cytotoxicity assay, HCT-116; format: cell-based; details: HCT-116, 48 h
# Description: as §1, §2, §3
# [3] = system: human breast cancer (MCF-7 cell lines); assay: MTT cytotoxicity assay, MCF-7; format: cell-based
# Description: as §1, §2, §3
# [4] = system: human breast adenocarcinoma (MDA-MB-231 cell lines); assay: MTT cytotoxicity assay, MDA-MB-231; format: cell-based; details: MDA-MB-231, 48 h
# Description: as §1, §2, §3
# [5] = system: cytochrome c in MCF-7 cells; assay: Cytochrome c release in MCF-7 cells (ELISA); format: cell-based, human; details: MCF-7, 19.6 µM (IC50), 24 h; untreated 0.176
# Description: as §4
# Cytochrome c specific antibodies have been precoated onto 96-well plates. Cytochrome c were analyzed by enzyme-linked immunosorbent assays (ELISAs) using commercial kits (ab119521; Abcam, Cambridge, MA, USA). The optimal dilutions were determined, and ELISAs were performed according to the manufacturer’s instructions.
# Figure 4 Levels of Bax, Bcl-2, Bax/Bcl-2 ratio, cytochrome c and caspase-7 protein in MCF-7 cells after treatment with compound 10 and the standard drug for 24 h compared with the untreated one, 5-flu: 5-fluorouracil as a reference drug.
compound,measurement,setting,value
"CCn1c(COc2ccc3c(-c4ccccc4)cc(=O)oc3c2)nnc1SC1OCC(O)C(O)C1O [Compound 10, 4-Phenyl-7-((4-ethyl-5-(1-(β-D-xylopyranosyl)thio)-4H-1,2,4-triazol-3-yl)meth-oxy)-2H-chromen-2-one]",cytotoxicity at 100 µM,[1],0.7 ± 0.003%
same,melting point,,178 to 179 °C
same,Level of caspase-7 (in words),caspase-7 in MCF-7 cells,elevated
same,cytotoxicity at 100 µM,[2],27.2 ± 0.7%
same,cytotoxicity at 100 µM,"[3]; MCF7, 48 h",66.3 ± 1%
same,IC50,"[3]; MCF7, MTT, 0.78–100 µM, ± SD",19.6 ± 0.7 µM
same,cytotoxicity at 100 µM,[4],20.6 ± 0.5%
same,Cytochrome c released into the cytosol,[5],0.766 ng/mL
